Reference: ChEMBL document CHEMBL1201862, “PubChem BioAssay data set” (2004)
Active and inactive are the calls of the source.

Key:
Jurkat = test: antigen receptor-induced NF-kB inhibitors, dose response, Jurkat, luciferase reporter, luminescence, B- and T-cell (AID 489004); format: functional, cell-based; details: Homo sapiens;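 further: NF-kB luciferase reporter Jurkat cells stimulated with PMA plus ionomycin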
CHO-K1 = test: (§1) Counterscreen for antagonists of the orexin 1 receptor (OX1R; HCRTR1): Homogeneous time resolved fluorescence (HTRF)-based cell-based dose response assay to identify antagonists of the parental CHO-K1 cell line. [Related pubchem assays (depositor defined):AID434989, AID435008, AID463079, AID485270, AID492963, AID492964, AID492965, AID493232, AID504699, AID504701]; format: functional; details: Cricetulus griseus
[1] = as §1, with “Fluorescence-based” for “Homogeneous time resolved fluorescence (HTRF)-based”, “cell-based high throughput” for “cell-based”, “CHO” for “CHO-K1”; format: functional
[2] = Luminescence Cell-Based Dose Confirmation HTS to Identify Inhibitors of Platelet Dense Granule Release. [Related pubchem assays: 1663 (Primary HTS), 1678 (Summary of Project)]; format: functional
BJ [3] = test: cells; format: functional, cell-based; details: Homo sapiens
BJ [4] = test: cytotoxicity toward BJ-TERT-LT-ST fibroblasts, dose response, cell-based, RAS-independent, luminescence (AID 1935); format: functional; details: Homo sapiens;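 further: BJ fibroblasts immortalized with TERT plus LT and ST oncogenes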
[5] = cytotoxicity in HEK-293T NF-kB-Luc cells, dose response, cytotoxicity control for B/T-cell NF-kB inhibitor project, cell-based, uHTS hits (AID 489019); format: functional;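 further: IC50 reflects cytotoxicity as loss of cell viability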
[6] = molecular target: Luciferin 4-monooxygenase (Photinus pyralis, UniProt P08659); test: firefly luciferase enzyme inhibitors, dose response, biochemical, luminescence (AID 1891)
BJ [7] = test: cytotoxicity toward BJ-TERT fibroblasts, dose response, cell-based, RAS-independent, luminescence (AID 1933); format: functional; details: Homo sapiens
BJ [8] = test: cytotoxicity toward Ras-transformed BJeLR fibroblasts, dose response, cell-based, alamar blue fluorescence, cherrypicked samples (AID 2631); format: functional; details: Homo sapiens;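 further: confirmatory dose-response assay in RAS-dependent BJ fibroblasts engineered with TERT, LT and ST, with cytotoxicity read by fluorescence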
[9] = molecular target: T1, Orexin/Hypocretin receptor type 1 (Homo sapiens, UniProt O43613); test: Homogeneous Time Resolved Fluorescence (HTRF)-based cell-based high throughput dose response assay for antagonists of the orexin 1 receptor (OX1R; HCRTR1). [Related pubchem assays (depositor defined):AID434989, AID435008, AID463079, AID485270, AID492963, AID492964, AID492965, AID493232, AID504717, AID504718]; format: functional
T1 sequence (O43613 whole entry): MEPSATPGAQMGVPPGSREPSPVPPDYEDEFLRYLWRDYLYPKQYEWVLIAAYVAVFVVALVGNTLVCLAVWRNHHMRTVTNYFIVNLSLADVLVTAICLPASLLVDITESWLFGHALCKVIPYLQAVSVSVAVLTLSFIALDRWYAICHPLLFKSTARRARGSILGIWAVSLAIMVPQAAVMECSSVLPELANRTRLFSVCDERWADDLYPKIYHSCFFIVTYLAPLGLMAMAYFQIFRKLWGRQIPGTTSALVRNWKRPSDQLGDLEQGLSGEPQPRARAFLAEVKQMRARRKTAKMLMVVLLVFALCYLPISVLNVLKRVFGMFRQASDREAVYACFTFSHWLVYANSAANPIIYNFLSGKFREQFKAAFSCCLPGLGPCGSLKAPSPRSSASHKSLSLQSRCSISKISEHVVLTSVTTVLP

[10] = cytotoxicity toward DRD oncogenic fibroblasts, dose response, cell-based, non-viral oncogenic, luminescence (AID 1934); format: functional; details: Homo sapiens
[11] = molecular target: T1, Orexin/Hypocretin receptor type 1; test: Fluorescence-based cell-based high throughput dose response assay for antagonists of the orexin 1 receptor (OX1R; HCRTR1). [Related pubchem assays (depositor defined):AID434989, AID435008, AID463079, AID485270, AID492963, AID492964, AID492965, AID493232, AID504717, AID504718]; format: functional
INS1 = test: beta cell apoptosis inhibitors, cytokine rescue, dose response, luminescence, retest (AID 449756); format: functional, cell-based; details: Rattus norvegicus;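 further: cell death triggered by IL-1 beta plus TNF-alpha plus IFN-gamma mixture; protective hits raise ATP signal compared with cytokine alone wells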
[12] = inhibitors of SNCA 5'UTR-driven reporter translation, confirmation, H4 neuroglioma cells, luminescence (AID 1988); format: functional, cell-based
[13] = HEK293 cell cytotoxicity, dose response, cytotoxicity control, plate reader, cherry-picked samples (AID 743446); format: functional, cell-based
[14] = MC4R antagonists, dose response, counter-screen for LGR2 antagonist project, cell-based, plate reader, cherry pick (AID 743444); format: functional;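 further: transfected HEK 293 cells stimulated with alpha-MSH peptide; potency of inhibitors of the alpha-MSH evoked signal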
[15] = Luminescence Cell-Based Dose Response HTS to Identify Inhibitors of 5'UTR Stem-Loop Driven Prion Protein mRNA Translation in H4 Neuroglioblastoma Cells. [Related pubchem assays: 1827 (Project Summary), 1813 (Primary HTS)]; format: functional
[16] = Luminescence Cell-Based Dose Retest to Confirm Inhibitors of Cancer Stem Cells. [Related pubchem assays (depositor defined):AID2717, AID2721]; format: functional; details: Homo sapiens
Mu-type opioid receptor = Mu-type opioid receptor (Homo sapiens, UniProt P35372); test: (§2) Counterscreen for agonists of heterodimerization of the mu 1 (OPRM1) and delta 1 (OPRD1) opioid receptors: Luminescence-based cell-based high throughput dose response assay to identify agonists of OPRM1 homodimerization.; format: functional
[17] = molecular target: 5-hydroxytryptamine receptor 5A (Homo sapiens, UniProt P47898); test: Counterscreen for agonists of OPRM1-OPRD1 heterodimerization: luminescence-based cell-based high throughput dose response assay to identify agonists of 5-hydroxytryptamine (serotonin) 5A receptor (HTR5A). [Related pubchem assays (depositor defined):AID504326, AID504355, AID504692, AID504904, AID504905]; format: functional
[18] = molecular target: Delta-type opioid receptor (Homo sapiens, UniProt P41143); test: as §2, with “of OPRD1” for “of OPRM1”, “homodimerization. [Related pubchem assays (depositor defined):AID504326, AID504355, AID504692, AID504904, AID504905]” for “homodimerization.”; format: functional
[19] = inhibitors of firefly luciferase expression or activity, dose response, H4 neuroglioma cells, luminescence (AID 1990); format: functional, cell-based
[20] = HepG2 cell cytotoxicity, dose response, cytotoxicity control, plate reader, cherry-pick, antagonist series (AID 743416); format: functional, cell-based
[21] = LGR2 antagonists, dose response, cell-based, HEK293, CRE-luciferase reporter, cherry pick, set 2 (AID 743343); format: functional;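 further: transfected cells were stimulated with diluted bursicon conditioned medium after compound addition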
[22] = A549 cell cytotoxicity, dose response, cytotoxicity control, plate reader, cherry-pick, antagonist series (AID 743412); format: functional, cell-based
[23] = molecular target: T2, Rac GTPase-activating protein 1 (Homo sapiens, UniProt Q9H0H5); test: MgcRacGAP GTPase-activating activity inhibitors, confirmation, biochemical, ADP Hunter fluorescence, primary and confirmatory (AID 624330); format: functional
T2 sequence (Q9H0H5 whole entry): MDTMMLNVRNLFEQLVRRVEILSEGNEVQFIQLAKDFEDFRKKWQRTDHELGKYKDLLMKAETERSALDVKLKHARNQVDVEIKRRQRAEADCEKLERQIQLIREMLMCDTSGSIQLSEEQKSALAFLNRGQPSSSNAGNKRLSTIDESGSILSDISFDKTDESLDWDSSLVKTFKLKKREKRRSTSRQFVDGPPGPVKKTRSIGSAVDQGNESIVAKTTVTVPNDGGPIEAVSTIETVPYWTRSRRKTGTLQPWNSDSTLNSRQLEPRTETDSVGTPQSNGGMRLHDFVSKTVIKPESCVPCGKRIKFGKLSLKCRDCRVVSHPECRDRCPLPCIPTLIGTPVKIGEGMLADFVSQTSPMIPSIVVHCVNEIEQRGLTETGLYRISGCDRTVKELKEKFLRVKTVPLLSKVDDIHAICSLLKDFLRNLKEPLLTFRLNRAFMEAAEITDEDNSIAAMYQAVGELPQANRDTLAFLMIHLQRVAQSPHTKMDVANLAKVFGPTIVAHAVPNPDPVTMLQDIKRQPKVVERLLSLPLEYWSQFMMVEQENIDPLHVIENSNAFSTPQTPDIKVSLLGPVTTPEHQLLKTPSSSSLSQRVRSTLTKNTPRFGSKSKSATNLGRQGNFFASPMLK

[24] = molecular target: Dual specificity tyrosine-phosphorylation-regulated kinase 1A (Rattus norvegicus, UniProt Q63470); format: biochemical, Homo sapiens
Large T antigen = Large T antigen (Simian virus 40, UniProt P03070); format: functional, Betapolyomavirus macacae;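 further: Confirmatory-stage PubChem screen for compounds that inhibit SV40 T antigen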
Vero = test: cells; format: functional, cell-based; details: Chlorocebus sabaeus

Sequence of Large T antigen (P03070 whole entry): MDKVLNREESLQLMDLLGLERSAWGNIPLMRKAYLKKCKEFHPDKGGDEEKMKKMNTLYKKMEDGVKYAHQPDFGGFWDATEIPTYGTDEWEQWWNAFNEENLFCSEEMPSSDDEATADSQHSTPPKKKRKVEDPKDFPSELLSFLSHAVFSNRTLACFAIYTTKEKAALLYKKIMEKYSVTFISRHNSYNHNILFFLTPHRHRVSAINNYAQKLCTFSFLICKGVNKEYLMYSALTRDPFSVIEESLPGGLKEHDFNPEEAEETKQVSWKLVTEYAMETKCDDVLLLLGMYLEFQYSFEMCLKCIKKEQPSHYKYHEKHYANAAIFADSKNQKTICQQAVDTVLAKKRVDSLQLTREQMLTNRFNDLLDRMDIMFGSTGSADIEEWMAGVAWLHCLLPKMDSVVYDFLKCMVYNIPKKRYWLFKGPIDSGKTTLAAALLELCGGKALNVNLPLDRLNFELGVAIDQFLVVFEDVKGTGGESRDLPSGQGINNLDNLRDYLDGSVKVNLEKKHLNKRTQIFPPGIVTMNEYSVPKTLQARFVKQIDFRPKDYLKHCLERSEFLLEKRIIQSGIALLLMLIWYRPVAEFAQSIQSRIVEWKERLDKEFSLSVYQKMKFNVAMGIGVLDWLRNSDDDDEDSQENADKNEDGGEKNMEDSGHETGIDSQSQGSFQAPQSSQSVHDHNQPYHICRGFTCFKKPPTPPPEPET
Sequence of Delta-type opioid receptor (P41143 whole entry): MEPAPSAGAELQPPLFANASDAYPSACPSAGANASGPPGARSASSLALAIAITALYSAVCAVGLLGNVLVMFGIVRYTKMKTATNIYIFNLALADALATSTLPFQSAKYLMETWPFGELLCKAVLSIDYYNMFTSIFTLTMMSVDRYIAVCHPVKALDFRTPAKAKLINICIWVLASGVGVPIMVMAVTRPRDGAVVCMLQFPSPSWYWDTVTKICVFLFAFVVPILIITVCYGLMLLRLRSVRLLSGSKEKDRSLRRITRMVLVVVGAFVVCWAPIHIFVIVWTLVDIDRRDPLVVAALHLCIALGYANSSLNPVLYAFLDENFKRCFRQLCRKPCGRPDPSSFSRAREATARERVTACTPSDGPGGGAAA
Sequence of 5-hydroxytryptamine receptor 5A (P47898 whole entry): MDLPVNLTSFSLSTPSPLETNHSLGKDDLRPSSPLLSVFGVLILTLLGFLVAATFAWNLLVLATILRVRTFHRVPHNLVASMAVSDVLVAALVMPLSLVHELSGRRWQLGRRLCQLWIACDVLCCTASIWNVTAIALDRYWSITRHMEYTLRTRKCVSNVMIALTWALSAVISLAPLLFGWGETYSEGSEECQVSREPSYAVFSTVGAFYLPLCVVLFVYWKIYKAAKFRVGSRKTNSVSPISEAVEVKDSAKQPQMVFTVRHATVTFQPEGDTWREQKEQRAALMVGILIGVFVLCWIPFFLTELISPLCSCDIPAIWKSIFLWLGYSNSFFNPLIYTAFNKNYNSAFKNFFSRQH
Sequence of Luciferin 4-monooxygenase (P08659 whole entry): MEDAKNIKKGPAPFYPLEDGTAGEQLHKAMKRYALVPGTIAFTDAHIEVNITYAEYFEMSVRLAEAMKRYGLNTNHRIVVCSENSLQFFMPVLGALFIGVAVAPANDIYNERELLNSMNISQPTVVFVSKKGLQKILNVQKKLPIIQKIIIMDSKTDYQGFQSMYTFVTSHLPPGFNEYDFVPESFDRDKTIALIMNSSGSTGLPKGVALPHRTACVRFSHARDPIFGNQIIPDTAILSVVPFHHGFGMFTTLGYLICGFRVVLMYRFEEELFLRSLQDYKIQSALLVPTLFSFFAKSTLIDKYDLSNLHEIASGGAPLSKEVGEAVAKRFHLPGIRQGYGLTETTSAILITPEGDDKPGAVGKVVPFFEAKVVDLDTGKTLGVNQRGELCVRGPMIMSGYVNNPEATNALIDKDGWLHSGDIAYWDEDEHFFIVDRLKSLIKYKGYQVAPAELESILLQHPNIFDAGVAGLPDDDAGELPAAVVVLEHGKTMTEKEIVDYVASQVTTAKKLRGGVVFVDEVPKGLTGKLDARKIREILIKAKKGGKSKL
Sequence of Mu-type opioid receptor (P35372 whole entry): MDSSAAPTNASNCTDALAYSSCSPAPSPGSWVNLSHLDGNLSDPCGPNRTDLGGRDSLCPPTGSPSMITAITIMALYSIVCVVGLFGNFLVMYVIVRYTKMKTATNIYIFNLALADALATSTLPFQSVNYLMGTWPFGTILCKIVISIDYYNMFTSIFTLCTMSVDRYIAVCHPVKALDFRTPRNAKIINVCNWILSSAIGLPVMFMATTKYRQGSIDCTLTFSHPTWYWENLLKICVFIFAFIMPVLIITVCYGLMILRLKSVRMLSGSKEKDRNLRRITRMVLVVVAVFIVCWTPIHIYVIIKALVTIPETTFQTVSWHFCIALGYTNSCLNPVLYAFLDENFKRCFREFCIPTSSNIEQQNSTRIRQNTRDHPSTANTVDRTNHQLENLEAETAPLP

CCn1c(C)nc2cc(-c3nc4n(n3)Cc3ccccc3-4)ccc21
IC50 (Jurkat): 0.23 µM (active)
IC50 (CHO-K1): > 66.2 µM (inactive)
IC50 [1]: > 49.8 µM (inactive)
EC50 [2]: 0.352 µM (active)
EC50 (BJ [3]): 1.76 µM (active)
EC50 (BJ [4]): 6.25 µM (active)
IC50 [5]: > 80 µM (inactive)
EC50 [6]: 0.311 µM (active)
EC50 (BJ [7]): 2.18 µM (active)
EC50 (BJ [8]): > 133 µM (inactive)
IC50 [9]: 2.69 µM (active)
EC50 [10]: 1.71 µM (active)
IC50 [11]: 48.1 µM (inactive)

COc1ccc(C(C)NCCC(c2ccc(OC(C)C)cc2)c2ccccc2OC)cc1 (stereo not given)
AC50 (INS1): 7.14 µM (active)
EC50 [12]: 7.93 µM (active)
AC50 [13]: 11.8 µM (active)
AC50 [14]: 28.8 µM (active)
EC50 [15]: 10.6 µM (active)
AC50 [16]: 4.45 µM (active)
EC50 (Mu-type opioid receptor): > 92.5 µM (inactive)
EC50 [17]: > 92.5 µM (inactive)
EC50 [18]: > 92.5 µM (inactive)
EC50 [19]: > 120 µM (not active)
AC50 [20]: 6.89 µM (active)
AC50 [21]: 23.2 µM (active)
AC50 [22]: 6.71 µM (active)

C=CCSC1=NC(=O)/C(=C/c2cccs2)S1
IC50 [23]: 29.7 µM (active)
AC50 [24]: 8.3 µM (active)
IC50 (Large T antigen): 40.8 µM (active)

Cc1ccc(S(=O)(=O)N2C[C@@H](C)[C@]3(C2)[C@H](O)[C@H](OC(=O)Nc2cccs2)C[C@H]2C(=O)N(c4ccccc4)C(=O)[C@H]23)cc1
IC50 (Vero): 22.1 µM (active)
